From patent US20150064710A1, “METHOD FOR INHIBITING CELL GROWTH, NUCLEIC ACID MOLECULE HAVING RNA INTERFERENCE EFFECT ON NEK10 VARIANT GENE, AND ANTICANCER AGENT” (Nippon Kayaku Kabushiki Kaisha, priority 2011, published 2015)

Tests used:
MDA-MB-231 cells = test: Growth inhibitory effect of NEK10 siRNA on cancer cells (methylene blue assay); assay type: cell-based; settings: MDA-MB-231 breast cancer cells; 72 hours after siRNA transfection; absorbance at 660 nm; control siRNA treatment group of first experiment = 100
Protocol: NEK10 siRNA #1 and NEK10 siRNA #2 were confirmed to have growth inhibitory effects on cancer cells. Namely, a study was conducted by methylene blue assay to determine whether cell growth is inhibited by knocking down NEK10 variant gene by transfecting the cells with NEK10 siRNA #1 and NEK10 siRNA #2.
MDA-MB-231 cells were transfected with each siRNA in the same manner as previously described (Confirmation of Expression Inhibitory Effect on NEK10 Variant mRNA) followed by culturing for 72 hours after transfection. After culturing, the medium was removed followed by the addition of 1000 μL of methanol and allowing to stand for 2 minutes at room temperature to fix the cells. After removing the methanol, 1000 μL of dye solution (0.05% methylene blue solution) were added followed by dyeing for 30 minutes. After washing three times with 4 mL of distilled water, 2 mL of a 3% HCl solution were added followed by measurement of the absorbance of methylene blue at 660 nm using a microplate reader (BioRad).
The experiment was conducted in triplicate and the same experiment was repeated three times. The average triplicate value of the control siRNA treatment group of the first experiment was used as a control, the cell growth rates (%) were calculated according to the following Equation (5) using the average triplicate values of the siRNA treatment group of each experiment. […]

NEK10 variant mRNA = test: Expression inhibitory effect on NEK10 variant mRNA (real-time PCR using SYBR Green after siRNA transfection); assay type: cell-based, human; settings: breast cancer cell line MDA-MB-231; siRNA (20 nM) with Lipofectamine RNAiMAX; 72 hours culture after transfection; first control siRNA treatment group = 100
Text: After carrying out siRNA treatment by transfecting cells with siRNA consisting of the combination of sense RNA consisting of the base sequence represented by SEQ ID NO: 2 and antisense RNA consisting of the base sequence represented by SEQ ID NO: 3 (to be referred to as NEK10 siRNA #1) and siRNA consisting of the combination of sense RNA consisting of the base sequence represented by SEQ ID NO: 4 and antisense RNA consisting of the base sequence represented by SEQ ID NO: 5 (to be referred to as NEK10 siRNA #2), NEK10 variant mRNA was measured by real-time PCR using SYBR™ Green to study the knockdown effects on NEK10 variant mRNA.
Breast cancer cell line MDA-MB-231, which was confirmed to express NEK10 variant mRNA in Example 1, was transfected with control siRNA, NEK10 siRNA #1 or NEK10 siRNA #2, and NEK10 variant mRNA following siRNA treatment was measured by real-time PCR using SYBR™ Green to study the knockdown effects on NEK10 variant mRNA of each siRNA. The control siRNA was purchased from Invitrogen, and siRNA synthesized by Invitrogen was used for NEK10 siRNA #1 and NEK10 siRNA #2. […]
Using 500 ng of the purified RNA, cDNA was prepared in the same manner as Reference Example 1 using the reverse transcriptase Superscript III (Invitrogen). Ct values were measured in the same manner as Reference Example 1 using 1 μL of the resulting cDNA as template. […]

| Substance | cell growth rate (MDA-MB-231 cells) | percentage of NEK10 mRNA versus the control (NEK10 variant mRNA) |
| --- | --- | --- |
| NEK10 siRNA #1: siRNA of sense RNA SEQ ID NO: 2 (5'-GAAAUCCUGUCAGAUGAUAACUUCA-3') and antisense RNA SEQ ID NO: 3 (antisense UGAAGUUAUCAUCUGACAGGAUUUC; RNA, backbone not given here) | 34±14% | 11±0.5% |
| NEK10 siRNA #2: siRNA of sense RNA SEQ ID NO: 4 (5'-UCUGCCUUGUUUGUUCACCACUAUU-3') and antisense RNA SEQ ID NO: 5 (antisense AAUAGUGGUGAACAAACAAGGCAGA; RNA, backbone not given here) | 58±17% | 86±7.4% |
